Laboratory results: ChEMBL document CHEMBL1201862, “PubChem BioAssay data set” (2004)
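In this assay, cells in 96-well plates receive the compound at five concentrations for 48 hours. Endpoints are linearly interpolated between the surrounding concentrations. The concentration for 50% growth inhibition is given as GI50.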 Active and inactive are the calls of the source. Cut-off read from the data, not from the text of the source: active = GI50 up to about 1.1 µM and inactive = higher.

How the values were obtained:
Assay in all cases: NCI tumour cell line growth inhibition, 48 h
[1] = test system: 786-0
[2] = test system: A498
[3] = test system: ACHN
[4] = test system: BT-549
[5] = test system: CAKI-1
[6] = test system: CCRF-CEM
[7] = test system: COLO 205
[8] = test system: DU-145
[9] = test system: EKVX
[10] = test system: HCT-116
[11] = test system: HCT-15
[12] = test system: HL-60
[13] = test system: HT-29
[14] = test system: Hs-578T
[15] = test system: IGROV-1
[16] = test system: K562
[17] = test system: KM12
[18] = test system: LOX IMVI
[19] = test system: M14
[20] = test system: MCF7
[21] = test system: MDA-MB-231
[22] = test system: MDA-MB-435
[23] = test system: MDA-N
[24] = test system: MOLT-4
[25] = test system: Malme-3M
[26] = test system: NCI-H226
[27] = test system: NCI-H23
[28] = test system: NCI/ADR-RES
[29] = test system: OVCAR-3
[30] = test system: OVCAR-5
[31] = test system: OVCAR-8
[32] = test system: PC-3
[33] = test system: RPMI-8226
[34] = test system: RXF 393
[35] = test system: SF-268
[36] = test system: SF-539
[37] = test system: SK-MEL-28
[38] = test system: SK-MEL-2
[39] = test system: SK-MEL-5
[40] = test system: SK-OV-3
[41] = test system: SN12C
[42] = test system: SNB-19
[43] = test system: SW-620
[44] = test system: T47D
[45] = test system: U-251
[46] = test system: UACC-62
[47] = test system: UO-31
[48] = test system: A549
[49] = test system: HCC 2998
[50] = test system: HOP-62
[51] = test system: HOP-92
[52] = test system: NCI-H460
[53] = test system: NCI-H522
[54] = test system: OVCAR-4
[55] = test system: SF-295
[56] = test system: SNB-75
[57] = test system: TK-10
[58] = test system: UACC-257

For CC(C)(Oc1ccc(Cl)cc1)C(=O)N(C(=O)N1CCCCC1)c1ccccc1, the GI50 [1] was 13.4 µM (inactive), the GI50 [2] was 17 µM (inactive) and the GI50 [3] was 14.9 µM (inactive). The GI50 [4] was 15.4 µM (inactive), the GI50 [5] was 14.4 µM (inactive) and the GI50 [6] was 16.7 µM (inactive). The GI50 [7] was 17.4 µM (inactive), the GI50 [8] was 14.7 µM (inactive) and the GI50 [9] was 2.45 µM (inactive). For the same molecule, the GI50 [10] was 5.32 µM (inactive), the GI50 [11] was 6.28 µM and the GI50 [12] was 2.16 µM (inactive). The GI50 [13] was 8.34 µM (inactive), the GI50 [14] was 16.9 µM (inactive) and the GI50 [15] was 5.09 µM (inactive). The GI50 [16] was 8.17 µM (inactive), the GI50 [17] was 5.87 µM (inactive) and the GI50 [18] was 11.4 µM (inactive). For the same molecule, the GI50 [19] was 17.5 µM (inactive), the GI50 [20] was 19.6 µM (inactive) and the GI50 [21] was 10.6 µM (inactive). For the same molecule, the GI50 [22] was 16 µM (inactive), the GI50 [23] was 24.5 µM (inactive) and the GI50 [24] was 3.41 µM (inactive). For the same molecule, the GI50 [25] was 12 µM (inactive), the GI50 [26] was 17.6 µM (inactive) and the GI50 [27] was 14.2 µM (inactive). The GI50 [28] was 14.5 µM (inactive), the GI50 [29] was 23.9 µM (inactive) and the GI50 [30] was 12 µM (inactive). For the same molecule, the GI50 [31] was 14.1 µM (inactive), the GI50 [32] was 3.4 µM (inactive) and the GI50 [33] was 7.55 µM (inactive). For the same molecule, the GI50 [34] was 18 µM (inactive), the GI50 [35] was 20.1 µM (inactive) and the GI50 [36] was 8.34 µM (inactive). The GI50 [37] was 15.2 µM (inactive), the GI50 [38] was 13.1 µM (inactive) and the GI50 [39] was 10.4 µM (inactive). The GI50 [40] was 19.8 µM (inactive), the GI50 [41] was 17 µM (inactive) and the GI50 [42] was 16.8 µM (inactive). For the same molecule, the GI50 [43] was 12.9 µM (inactive), the GI50 [44] was 0.891 µM (active) and the GI50 [45] was 14.2 µM (inactive). For the same molecule, the GI50 [46] was 13.2 µM (inactive) and the GI50 [47] was 10.8 µM (inactive).
With OCC1c2ccccc2-n2nc(-c3ccccc3)c(O)c21 (stereo unspecified) the GI50 [1] was 18.2 µM (inactive), the GI50 [48] was 44.2 µM (inactive) and the GI50 [3] was 16.8 µM (inactive). For the same molecule, the GI50 [4] was 20 µM (inactive), the GI50 [5] was 17.8 µM (inactive) and the GI50 [6] was 28.6 µM (inactive). For the same molecule, the GI50 [7] was 13.5 µM (inactive), the GI50 [8] was 68.5 µM (inactive) and the GI50 [9] was 29.2 µM (inactive). The GI50 [49] was 16.3 µM (inactive), the GI50 [10] was > 10 µM (inactive) and the GI50 [11] was 14.9 µM. The GI50 [50] was 41.9 µM (inactive), the GI50 [51] was 16.9 µM (inactive) and the GI50 [13] was 30.6 µM (inactive). For the same molecule, the GI50 [14] was 42.2 µM (inactive), the GI50 [15] was 36.2 µM (inactive) and the GI50 [16] was 21.4 µM (inactive). The GI50 [17] was 18.4 µM (inactive), the GI50 [18] was 20.7 µM (inactive) and the GI50 [20] was 14.4 µM (inactive). For the same molecule, the GI50 [21] was 29.2 µM (inactive), the GI50 [22] was 26.2 µM (inactive) and the GI50 [23] was 46.1 µM (inactive). For the same molecule, the GI50 [24] was 31 µM (inactive), the GI50 [25] was 17.1 µM (inactive) and the GI50 [26] was 79.4 µM (inactive). The GI50 [27] was 54.7 µM (inactive), the GI50 [52] was 29.9 µM (inactive) and the GI50 [53] was 22.1 µM (inactive). The GI50 [28] was 18.6 µM (inactive), the GI50 [29] was 26.7 µM (inactive) and the GI50 [54] was 26.9 µM (inactive). The GI50 [30] was > 100 µM (inactive), the GI50 [31] was 18.5 µM (inactive) and the GI50 [32] was 17.6 µM (inactive). For the same molecule, the GI50 [34] was 17.7 µM (inactive), the GI50 [35] was 36.9 µM (inactive) and the GI50 [55] was 38.5 µM (inactive). For the same molecule, the GI50 [36] was 43.1 µM (inactive), the GI50 [37] was 58.1 µM (inactive) and the GI50 [38] was 15.9 µM (inactive). The GI50 [39] was 33.3 µM (inactive), the GI50 [40] was 39.4 µM (inactive) and the GI50 [41] was 17.6 µM (inactive). For the same molecule, the GI50 [42] was 37.9 µM (inactive), the GI50 [56] was 68.9 µM (inactive) and the GI50 [43] was 29.3 µM (inactive). The GI50 [44] was 22.3 µM (inactive), the GI50 [57] was 19.9 µM (inactive) and the GI50 [45] was 19.4 µM (inactive). For the same molecule, the GI50 [58] was 47 µM (inactive), the GI50 [46] was 20.7 µM (inactive) and the GI50 [47] was 22.8 µM (inactive).
